# Patent US20050267016A1, “CD-10 activated prodrug compounds” (priority 2001, published 2005)
# Read-outs that look alike come from different tables or passages of the source. Marks after values point to notes of the source that are not given here.
# How the values were obtained:
# Parental CHO cells = assay: 3H thymidine proliferation assay, parental CHO; format: cell-based, Chinese Hamster; conditions: for IC50: Cricetulus griseus; for Ratio Suc-β-Ala-Ile-Ala-Leu/Dox: Parental CHO, ratio of IC50
# LNCaP tumors = assay: LNCaP xenograft in SCID mice, Q6DX2 (Example 24); format: in vivo, CB17.SCID mice; set-up: key to Tumor Weight: tumor weight in mg
# Experimental: The mean tumor weight was approximately 200 mg at Day 0. […] Studies were terminated at Day 60.
# [1] = tested on: LNCaP human prostate carcinoma xenografts
# Experimental: LNCaP human prostate carcinoma cells express high levels of CD10 on the surface. Suc-βAla-Leu-Ala-Leu-Dox and Suc-Leu-Ala-Gly-Dox were tested at a single dose level Q7Dx5. […] The mice were weighed and tumors were measured (by caliper) at least once a week prior to start of dosing (Day 0), then twice a week during the study. Immediately before the start of dosing (Study Day −2 to Day 0), mice were randomized to various groups based on the weight of the tumors. […] Mice were euthanized after the tumors reached a cutoff weight of 1.5 g (cancer endpoint), or when mice suffered over 25% weight loss (toxic endpoint). Studies were terminated at Day 60.
# [2] = tested on: CD10 transfected CHO cells, Clone #7; assay: 3H thymidine proliferation assay, CD10 transfected CHO Clone #7
# Experimental: The fully assembled coding region was sub-cloned into a mammalian expression vector, downstream of the hCMV-MIE promoter. DNA sequence analysis confirmed sequence identity with the coding sequence of human CD10 (Genbank accession number Y00811). The expression plasmid was linearized and stably transfected into CHO—S cells. CD10 expressing transfectant clones were selected under 500 ug/mL of hygromycin and screened by flow cytometry for cell-surface CD10 expression using a commercially available anti-CD10-FITC antibody.
# [3] = Repeat-dose MTD in tumor bearing mice; format: in vivo; conditions: mouse, in vivo
# Experimental: (§1) In repeat-dose studies in tumor bearing mice, groups of ten mice were dosed with various amounts of prodrug for a total of five doses at either five day or 1 week intervals. […] Thus, the conclusion remains the same in that the prodrugs permit a much greater amount of therapeutic agent to be delivered to the body as a whole and to the vicinity of the target cell.
# (§2) As would be expected, when a dose similar to the single-dose MTD (75 mg/kg) (See Example 16) was administered as a repeat-dose it was less well tolerated. […] All treated animals lost weight progressively throughout the study, while the vehicle control group gained up to 12% of the mean initial body weight. (FIG. 20). Two treated animals in the high dose group were terminated due to signs of toxicity, with body weight loss of greater that 20% of their initial weight. […] Thus cumulative toxicity resulted from repeat-dosing at these relatively high dose-levels.
# [4] = tested on: LS174t tumor bearing mice; assay: Repeat-dose MTD in tumor bearing mice; format: in vivo
# Experimental: as §1, §2
# [5] = Metabolism and clearance in normal mice (plasma and urine, LC MS/MS); format: in vivo; conditions: for dose excreted: iv, 117 mg/kg
# Experimental: The metabolism and clearance of Suc-Ile-Ala-Leu-Dox was studied in normal mice. The mice were administered Suc-Ile-Ala-Leu-Dox at a single intravenous bolus dose of 117 mg/kg. Plasma samples were obtained at 1 and 4 hours. Plasma samples of 100 μl were transferred to microcentrifuge tubes (1.5 mL) and an internal standard of daunorubicin (20 μL at 0.5 mg/ml) was added together with acetonitrile (400 μl). The tubes were capped and briefly vortexed followed by centrifugation at 14,000 rpm. 420 μl from each tube was removed and dried in vacuo. Each sample was reconstituted in 65 μl 20 mM aqueous ammonium formate pH 4.5 buffer (AF) containing acetonitrile (20%) prior to analysis by reverse phase liquid chromatography in combination with tandem mass spectrometry (LC MS/MS).
# Urine was collected at 2 and 24 hours post administration from pairs of mice in metabolic cages. Urine samples were diluted with AF containing acetonitrile (20%) to give a target analyte concentration within the practical range of the LC MS/MS assay. 30 μl of each diluted sample was placed in an Eppendorf tube (1.5 ml) and an internal standard of daunorubicin (20 μL at 0.5 mg/ml) was added together with 50 μl of AF containing acetonitrile (20%). Each sample was then analyzed by LC MS/MS.
# An Agilent HP1100 HPLC with DAD detector and Chemstation software was coupled to a PE Sciex API 365 mass spectrometer with an electrospray ion source. HPLC was performed on a TSK-Gel Super ODS, […], 4.6×50 mm (TosoHaas) reversed phase column equipped with a […] C18 guard disc (Higgins Analytical) and stainless steel frit (Upchurch Scientific). Chromatography was performed at room temperature. The flow rate was 0.5 ml/min. Injection volume was 50 μL. Gradient elution was performed using a mobile phase of 20 mM aqueous AF pH 4.5 buffer with increasing amounts of acetonitrile. The API 365 was operated at 365° C. in a multiple reaction monitoring mode, set to monitor specific analyte parent-daughter ion pairs. Integration of chromatograms was performed by MacQuant software (PE Sciex) and quantitation of each analyte obtained by comparison to previously obtained calibration curves. Daunorubicin was used as an internal standard in all cases.
# For the calculation of percent of administered dose, plasma volume was estimated to be 40% of blood volume, which was calculated as 7% of animal's body weight. At 2 and 24 hours the parent compound was detected in urine at 3.9% and 15.0% of the administered dose, showing that the kidney is a major organ of excretion for the prodrug (FIG. 17).
# Plasma samples were obtained at 1 and 4 hours from separate mice. Urine was collected at 2 and 24 hours post administration from pairs of mice in metabolic cages. The plasma and urine samples were prepared and analyzed as described in Example 17.
# normal mice = assay: Single dose Maximum Tolerated Dose (MTD) study, 28 days; format: in vivo; conditions: for single-dose MTD, fold higher than doxorubicin alone: 28 days
# Experimental: (§3) The mice were observed daily for 28 days and body weights measured twice weekly.
# as §3
# (§4) In the single dose Maximum Tolerated Dose (MTD) studies, groups of normal mice were administered intravenous bolus doses of the prodrug. The mice were observed daily for 28 days and body weights measured twice weekly. The MTD was estimated to be equal to the highest dose that produced no death in mice after 28 days.
# [6] = as above; format: in vivo, mice; conditions: mouse, in vivo; intravenous bolus, normal mice, 28 days
# Experimental: as §3, §3, §4
# [7] = Dose 75 mg/kg (Table 19), Q7DX5
smiles,measurement,setting,value
"COc1cccc2c1C(=O)c1c(O)c3c(c(O)c1C2=O)C[C@@](O)(C(=O)CO)C[C@@H]3O[C@H]1C[C@H](N)[C@H](O)[C@H](C)O1 [Doxorubicin, reference compound]",IC50,"Parental CHO cells; CHO, Tables 25, 26, read-out: IC50 Parental CHO",510 nM
same,IC50,"Parental CHO cells; CHO cells, average, read-out: average IC50 in CHO cells",570 nM
same,Toxic Endpt.,LNCaP tumors; 3 mg/kg Q6DX2,1
same,% Tumor Growth Inhibition,"LNCaP tumors; 3 mg/kg Q6DX2, Day 12",21 ± 8%
same,Tumor Weight,"LNCaP tumors; 3 mg/kg Q6DX2, Day 12",328 ± 35
same,Survivor (day 22),"LNCaP tumors; 3 mg/kg Q6DX2, groups of ten",9
same,Toxic Endpt.,LNCaP tumors; 4 mg/kg Q6DX2,2
same,% Tumor Growth Inhibition,"LNCaP tumors; 4 mg/kg Q6DX2, Day 12",26 ± 6%
same,Tumor Weight,"LNCaP tumors; 4 mg/kg Q6DX2, Day 12",310 ± 25
same,Survivor (day 22),"LNCaP tumors; 4 mg/kg Q6DX2, groups of ten",8
same,Tumor Growth Inhibition (% over control),"[1]; Dose 5 mg/kg, Q7DX5",32.5%
same,Tumor Weight (mg) D14,"[1]; Dose 5 mg/kg, Q7DX5",D14: 567 ± 77 (n = 6) mg
same,Toxicity (Weight Loss >25%),"[1]; male, NCr nude, mouse, in vivo, 5 mg/kg, 60 days",4/6
same,IC50,"[2]; Cricetulus griseus, CHO, read-out: IC50 Clone #7",640 nM
same,MTD at 60 days,"[3]; Q 7D × 5, tumor bearing mice",4 mg/kg
same,"Repeat Dose MTD, doxorubicin equivalent dose (in parentheses)",[4]; Q 7D × 5,4 (4) mg/kg
same,RD-MTD as total exposure after 5 doses,[4]; total of 5 doses,20 mg/kg doxorubicin equivalent
same,Urine (% adm. dose) 2 hr,"[5]; after Suc-Ile-Ala-Leu-Dox 117 mg/kg, collected 0-2 hours",0.06 % adm. dose
same,Urine (% adm. dose) 24 hr,"[5]; after Suc-Ile-Ala-Leu-Dox 117 mg/kg, collected 2-24 hours",0.36 % adm. dose
same,Plasma (% adm. dose) 4 hr,"[5]; mouse, in vivo, 4 h",0.00 % adm. dose
CC[C@H](C)[C@H](NC(=O)CCC(=O)O)C(=O)N[C@@H](C)C(=O)N[C@@H](CC(C)C)C(=O)N[C@H]1C[C@H](O[C@H]2C[C@](O)(C(=O)CO)Cc3c(O)c4c(c(O)c32)C(=O)c2c(OC)cccc2C4=O)O[C@@H](C)[C@H]1O [Suc-Ile-Ala-Leu-Dox],"single-dose MTD, fold higher than doxorubicin alone",normal mice,at least 16 fold
same,28-day single-dose Maximum Tolerated Dose (MTD),"normal mice; intravenous bolus, normal mice",> 117 mg/kg
same,MTD,[6],≥ 66 mg/kg
same,dose excreted,"[5]; mouse, in vivo, after Suc-Ile-Ala-Leu-Dox 117 mg/kg, collected 0-2 hours, read-out: Urine (% adm. dose) 2 hr",3.9%
same,dose excreted,"[5]; mouse, in vivo, after Suc-Ile-Ala-Leu-Dox 117 mg/kg, collected 2-24 hours, read-out: Urine (% adm. dose) 24 hr",15%
CC[C@H](C)[C@H](NC(=O)CCNC(=O)CCC(=O)O)C(=O)N[C@@H](C)C(=O)N[C@@H](CC(C)C)C(=O)N[C@H]1C[C@H](O[C@H]2C[C@](O)(C(=O)CO)Cc3c(O)c4c(c(O)c32)C(=O)c2c(OC)cccc2C4=O)O[C@@H](C)[C@H]1O [Suc-βAla-Ile-Ala-Leu-Dox],Ratio Suc-β-Ala-Ile-Ala-Leu/Dox,Parental CHO cells,49
same,Ratio Suc-β-Ala-Ile-Ala-Leu/Dox,Parental CHO cells; listed as Suc-β-Ala-Ile-Ala-Leu,96
same,animals euthanized due to treatment-related toxicity,"normal mice; 100 mg/kg, Day 21, groups of five",two
same,animals euthanized due to treatment-related toxicity,"normal mice; 125 mg/kg, Day 14, groups of five",four
same,"single-dose MTD, fold higher than doxorubicin alone",normal mice,approximately 10 fold
same,MTD,[6],40 mg/kg
same,Ratio Suc-β-Ala-Ile-Ala-Leu/Dox,"[2]; Clone #7, ratio of IC50",17
same,MTD,"[3]; total of 5 doses, read-out: RD-MTD as total exposure after 5 doses",~150 mg/kg
same,animals terminated due to signs of toxicity,"[4]; 68 mg/kg Q5DX5, groups of ten",Two
same,dose excreted,"[5]; mouse, in vivo, Urine (% adm. dose) 2 hr",12.7%
same,dose excreted,"[5]; mouse, in vivo, Urine (% adm. dose) 24 hr",4.81%
COc1cccc2c1C(=O)c1c(O)c3c(c(O)c1C2=O)C[C@@](O)(C(=O)CO)C[C@@H]3O[C@H]1C[C@H](NC(=O)[C@H](CC(C)C)NC(=O)[C@H](C)NC(=O)[C@H](CC(C)C)NC(=O)CCNC(=O)CCC(=O)O)[C@H](O)[C@H](C)O1 [Suc-βAla-Leu-Ala-Leu-Dox],Toxic Endpt.,LNCaP tumors; 40 mg/kg Q6DX2,0
same,Tumor Weight,"LNCaP tumors; 40 mg/kg Q6DX2, Day 12",244 ± 25
same,Survivor (day 22),"LNCaP tumors; 40 mg/kg Q6DX2, groups of ten",10
same,Toxic Endpt.,LNCaP tumors; 50 mg/kg Q6DX2,5
same,Tumor Weight,"LNCaP tumors; 50 mg/kg Q6DX2, Day 12",168 ± 29
same,Survivor (day 22),"LNCaP tumors; 50 mg/kg Q6DX2, groups of ten",5
same,Toxic Endpt.,LNCaP tumors; 62 mg/kg Q6DX2,6
same,Tumor Weight,"LNCaP tumors; 62 mg/kg Q6DX2, Day 12",196 ± 22
same,Survivor (day 22),"LNCaP tumors; 62 mg/kg Q6DX2, groups of ten",4
same,Tumor Growth Inhibition (% over control) D14,[1]; [7],D14: 53.4** %
same,Tumor Growth Inhibition (% over control) D21,[1]; [7],D21: 66.2** %
same,Tumor Weight (mg) D14,[1]; [7],D14: 391 ± 70 (n = 7) mg
same,Tumor Weight (mg) D21,[1]; [7],D21: 318 ± 67 (n = 7) mg
same,Toxicity (Weight Loss >25%),"[1]; Dose 75 mg/kg (Table 19), Q7DX5, mice affected/total",7/7
